In US6831190B1, “Guanidinomethyl cyclohexane carboxylic acid ester derivatives” (Teikoku Chemical Industries Co., Ltd., priority 1994, dated 2004):

Tests used:
Format in all cases: cell-based
[1] = tested on: Bacillus subtilis ATCC 6633; test: MIC, standard method of Japanese Chemotherapy Academy; conditions: for MIC against bacillus subcillus ATCC 6633: standard method of Japanese Chemotherapy Academy
Protocol: (§1) 1. Minimum Inhibitory Concentration (MIC) was measured in accordance with the standard method of Japanese Chemotherapy Academy (Chemotherapy, 29: 76-79, 1981).
(§2) And MIC of the compounds of Example 3, 36, 8, 14, 17, 21, 41 and 45 were measured.

[2] = tested on: Helicobacter pylori No. 2; test: MIC, agar plating dilution, clinical segregation strain; conditions: Strain 5: Helicobacter pylori No. 2
Protocol: (§3) Minimum Inhibitory Concentration (MIC) was measured in accordance with the standard method of Japanese Chemotherapy Academy (Chemotherapy, 29: 76-79, 1981). Sensitivity was measured with an agar plating dilution using Brain-Heart Infusion agar (Difco Co.) which was added 0.1% of cyclodextrin. […] of the solutions of the compounds which were obtained in examples of the present invention was prepared by dissolving in dimethylsulfoxide. […] Each of 1 ml of those prepared solutions was dispensed in share, after sterilization, 9 ml of sensitivity measuring medium which is kept at 50° C. was added to each, and they were sufficiently mixed. The mixture was used as a plate for measuring sensitivity. Brain Heart Infusion agar medium (Difco Co.), which was added 0.1% of cyclodextrin, was used as bacteria growing medium, and was cultured under microair at 37° C. for three days, and the number of bacteria thereof was adjusted to about 106/ml. This was used as a bacterial solution for inoculation. The medium was painted in each square about 2 cm with nichromic line loop. The medium was cultured under microair for three days at 37° C. […] The each result is shown at Table 4.

[3] = tested on: Helicobacter pylori No. 3; test: as above; conditions: Strain 6: Helicobacter pylori No. 3
Protocol: as §3

[4] = tested on: Helicobacter pylori No. 1; test: as above; conditions: Strain 4: Helicobacter pylori No. 1
Protocol: as §3

[5] = tested on: Helicobacter pylori No. 4; test: as above; conditions: Strain 7: Helicobacter pylori No. 4
Protocol: as §3

[6] = tested on: Helicobacter pylori ATCC 43504; test: MIC, agar plating dilution (standard method of Japanese Chemotherapy Academy); conditions: Objected Strain 1: Helicobacter pylori ATCC 43504
Protocol: (§4) 1. Minimum Inhibitory Concentration (MIC) was measured in accordance with the standard method of Japanese Chemotherapy Academy (Chemotherapy, 29: 76-79, 1981). Sensitivity was measured with an agar plating dilution using Brain-Heart Infusion agar (Difco Co.) which was added 0.1% of cyclodextrin. […] of the solutions of the compounds which were obtained in examples of the present invention was prepared by dissolving in dimethylsulfoxide. […] Each of 1 ml of those prepared solutions was dispensed in share, after sterilization, 9 ml of sensitivity measuring medium which is kept at 50° C. was added to each, and they were sufficiently mixed. The mixture was used as a plate for measuring sensitivity. Brain Heart Infusion agar medium (Difco Co.), which was added 0.1% of cyclodextrin, was used as bacteria growing medium, and was cultured under microair at 37° C. for three days, and the number of bacteria thereof was adjusted to about 106/ml. This was used as a bacterial solution for inoculation. The medium was painted in each square about 2 cm with nichromic line loop. The medium was cultured under microair for three days at 37° C.

[7] = tested on: Helicobacter pylori ATCC 43629; test: as above; conditions: Objected Strain 2: Helicobacter pylori ATCC 43629
Protocol: as §4

[8] = tested on: Escherichia coli NIH JC-2; test: MIC, standard method of Japanese Chemotherapy Academy; conditions: for MIC: Objected Strain 3: Escherichia coli NIH JC-2
Protocol: as §1

[9] = tested on: Staphylococcus aureus No. 2 (MRSA); test: as above; conditions: Strain 14: Staphylococcus aureus No. 2 (MRSA)
Protocol: as §1, §2

[10] = tested on: Staphylococcus aureus 209PJC; test: as above; conditions: Strain 11: Staphylococcus aureus 209PJC
Protocol: as §1, §2

| Compound | MIC against bacillus subcillus ATCC 6633 [1] [µg/mL] | MIC [2] [µg/mL] | MIC [3] [µg/mL] | MIC [4] [µg/mL] | MIC [5] [µg/mL] | MIC [6] [µg/mL] | MIC [7] [µg/mL] | MIC [8] [µg/mL] | MIC against Escherichia coli. NHJC-2 ([8]; standard method of Japanese Chemotherapy Academy) [µg/mL] | MIC ([1]; Strain 13: Bacillus subtilis ATCC 6633) [µg/mL] | MIC [9] [µg/mL] | MIC [10] [µg/mL] |
| --- | --- | --- | --- | --- | --- | --- | --- | --- | --- | --- | --- | --- |
| Cc1ccc(COC(=O)c2ccc(-c3ccc(OC(=O)[C@H]4CC[C@H](CNC(=N)N)CC4)cc3)cc2)c(C)c1.Cl [Example 25, trans-4-guanidinomethyl cyclohexane carboxylic acid[4-[4-(2,4-dimethylbenzyloxycarbonyl)phenyl]phenylester].hydrochloride] | > 25 | 0.39 | 0.20 | 0.39 | 0.39 | 0.39 | 0.78 | >25 | – | – | – | – |
| Cl.N=C(N)NC[C@H]1CC[C@H](C(=O)Oc2ccc(-c3ccc(C(=O)OCCCc4ccccc4)cc3)cc2)CC1 [Example 39, trans-4-guanidinomethyl cyclohexane carboxylic acid[4-[4-(3-phenylpropyloxycarbonyl)phenyl]phenylester].hydrochloride] | – | 0.78 | 0.20 | 0.39 | 0.39 | 0.39 | 0.78 | >25 | – | – | – | – |
| Cc1ccc(COC(=O)c2ccc(-c3ccc(OC(=O)[C@H]4CC[C@H](CNC(=N)N)CC4)c(Br)c3)cc2)cc1.Cl [Example 24, trans-4-guanidinomethyl cyclohexane carboxylic acid[2-bromo-4-[4-(4-methylbenzyloxycarbonyl)phenyl]phenylester].hydrochloride] | > 25 | 0.39 | 0.20 | – | 0.39 | 0.39 | 0.78 | >25 | – | – | – | – |
| Cl.N=C(N)NC[C@H]1CC[C@H](C(=O)Oc2ccc(-c3ccc(C(=O)OCC4CCCCC4)cc3)cc2)CC1 [Example 23, trans-4-guanidinomethyl cyclohexane carboxylic acid [4-(4-cyclohexylmethyloxy carbonylphenyl)phenylester].hydrochloride] | 25 | 0.39 | 0.20 | 0.20 | 0.39 | 0.20 | 0.39 | >25 | – | – | – | – |
| 4-[4-(trans-4-guanidinomethyl cyclohexylcarbonyloxy)phenyl]benzoate.methansulfonate [Example 28] | > 25 | – | – | – | – | – | – | – | > 25 | – | – | – |
| CC(C)OC(=O)c1ccc(-c2ccc(OC(=O)[C@H]3CC[C@H](CNC(=N)N)CC3)cc2)cc1.Cl [Example 20, trans-4-guanidinomethyl cyclohexane carboxylic acid [4-(4-isopropyloxycarbonyl)phenylphenylester].hydrochloride] | – | 1.56 | 0.39 | 0.39 | 0.78 | 0.78 | 0.78 | >25 | – | – | – | – |
| CCCC[C@H]1CC[C@H](COC(=O)c2ccc(-c3ccc(OC(=O)[C@H]4CC[C@H](CNC(=N)N)CC4)cc3)cc2)CC1.Cl [Example 42, trans-4-guanidinomethyl cyclohexane carboxylic acid[4-[4-(trans-4-n-butylcyclohexylmethloxycarbonyl)phenyl]phenylester].hydrochloride] | – | 1.56 | 0.20 | 0.39 | 0.39 | 0.39 | 1.56 | >25 | – | – | – | – |
| CCOC(=O)c1ccc(Oc2ccc(OC(=O)[C@H]3CC[C@H](CNC(=N)N)CC3)cc2)cc1.Cl [Example 36, trans-4-guanidinomethyl cyclohexane carboxylic acid[4(4-ethoxycarbonylphenyloxy)phenylester].hydrochloride] | – | – | – | – | – | 6.25 | 6.25 | >25 | – | 25 | 6.25 | 6.25 |
| Cl.N=C(N)NC[C@H]1CC[C@H](C(=O)Oc2ccc(-c3ccccc3)cc2)CC1 [Compound 1, trans-4-guanidinomethyl cyclohexane carboxylic acid (4-phenylphenylester)hydrochloride, reference compound] | – | 1.56 | 0.39 | 0.39 | 0.78 | 3.13 | 0.78 | >25 | – | – | – | – |
| CCOC(=O)c1ccc(-c2ccc(OC(=O)[C@H]3CC[C@H](CNC(=N)N)CC3)cc2)cc1.Cl [Example 2, trans-4-guanidinomethyl cyclohexane carboxylic acid [4-(4-ethoxycarbonylphenyl)phenylester].hydrochloride] | – | 1.56 | 0.39 | 0.39 | 0.78 | 1.56 | 0.78 | >25 | – | – | – | – |
| Cl.N=C(N)NC[C@H]1CC[C@H](C(=O)Oc2ccc(-c3ccc(C(=O)OCCCOc4ccc(F)cc4)cc3)cc2)CC1 [Example 40, trans-4-guanidinomethyl cyclohexane carboxylic acid[4-[4-[3-(4-fluorophenyloxy)propyloxycarbonyl]phenyl]phenylester].hydrochloride] | – | 0.78 | 0.10 | 0.20 | 0.39 | 0.20 | 0.39 | >25 | – | – | – | – |
| Cl.N=C(N)NC[C@H]1CC[C@H](C(=O)Oc2ccc(-c3ccc(C(=O)OCc4ccccc4F)cc3)cc2)CC1 [Example 19, trans-4-guanidinomethyl cyclohexane carboxylic acid [4-[4-(2-fluorobenzyloxycarbonyl)phenyl]phenylester].hydrochloride] | > 25 | 0.78 | 0.20 | 0.20 | 0.39 | 0.39 | 0.39 | >25 | – | – | – | – |
| COc1ccc(COC(=O)c2ccc(-c3ccc(OC(=O)[C@H]4CC[C@H](CNC(=N)N)CC4)cc3)cc2)cc1.Cl [Example 18, trans-4-guanidinomethyl cyclohexane carboxylic acid [4-[4-(4-methoxybenzyloxy carbonyl)phenyl]phenylester].hydrochloride] | 25 | 0.78 | 0.20 | 0.20 | 0.39 | 0.78 | 0.78 | >25 | – | – | – | – |
| Cl.N=C(N)NC[C@H]1CC[C@H](C(=O)Oc2ccc(-c3ccc(C(=O)OCCc4ccccc4)cc3)cc2)CC1 [Example 26, trans-4-guanidinomethyl cyclohexane carboxylic acid[4-[4-(2-phenylethyloxycarbonyl)phenyl]phenylester].hydrochloride] | > 25 | 0.39 | 0.10 | 0.20 | 0.20 | 0.39 | 0.78 | >25 | – | – | – | – |
